According to patent publication US20130217664A1, “NOVEL COMPOUNDS USEFUL FOR THE TREATMENT OF DEGENERATIVE AND INFLAMMATORY DISEASES” (priority 2012, published 2013):
Like-named read-outs stand apart in the source and are kept apart here.

Experiments:
human JAK1 = target: T1, human JAK1 (Homo sapiens, UniProt P23458); test: JAK1 inhibition assay (polyGT substrate / Ulight-JAK1 peptide); type: biochemical; conditions: recombinant human JAK1 catalytic domain; polyGT or Ulight-JAK1 peptide assay
T1 construct: catalytic domain, amino acids 866-1154; catalog number PV4774; purchased Invitrogen PV4774
T1 sequence (P23458 866-1154): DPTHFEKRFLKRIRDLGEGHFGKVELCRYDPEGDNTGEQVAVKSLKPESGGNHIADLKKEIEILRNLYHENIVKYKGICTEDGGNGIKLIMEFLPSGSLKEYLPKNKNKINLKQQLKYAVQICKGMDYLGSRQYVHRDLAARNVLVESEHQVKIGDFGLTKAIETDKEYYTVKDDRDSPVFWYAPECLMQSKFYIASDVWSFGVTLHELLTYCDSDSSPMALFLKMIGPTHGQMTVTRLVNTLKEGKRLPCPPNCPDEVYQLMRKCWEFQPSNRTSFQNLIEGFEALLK
Method in brief: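 Two formats. PolyGT radiometric: 45 min at 30 °C, stopped with phosphoric acid, counted as cpm. Ulight-JAK1 peptide: 60 min at room temperature, stopped with Eu-anti-phosphotyrosine/EDTA, read as RFU. Percent inhibition normalised to vehicle and 10 μM staurosporine.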

human JAK3 = target: T2, human JAK3 (Homo sapiens, UniProt P52333); test: JAK3 inhibition assay; type: biochemical; conditions: recombinant human JAK3 catalytic domain; polyGT substrate
T2 construct: catalytic domain (amino acids 781-1124; catalog number PV3855); purchased Invitrogen PV3855
T2 sequence (P52333 781-1124): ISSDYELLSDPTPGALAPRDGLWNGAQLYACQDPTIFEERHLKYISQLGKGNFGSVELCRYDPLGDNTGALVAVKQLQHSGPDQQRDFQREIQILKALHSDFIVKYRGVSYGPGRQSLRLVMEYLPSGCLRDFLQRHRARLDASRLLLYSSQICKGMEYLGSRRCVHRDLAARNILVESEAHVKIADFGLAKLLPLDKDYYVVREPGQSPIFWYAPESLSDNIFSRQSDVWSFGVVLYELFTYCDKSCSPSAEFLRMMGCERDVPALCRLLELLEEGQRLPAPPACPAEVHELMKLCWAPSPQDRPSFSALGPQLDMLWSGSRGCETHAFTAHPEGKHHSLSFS
Method in brief: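 Radiometric kinase assay: 0.5 ng JAK3 with 2.5 μg polyGT in Tris pH 7.5/MgCl2 buffer, 1 μM ATP plus 0.25 μCi 33P-γ-ATP, 1% DMSO, 45 min at 30 °C, stopped with phosphoric acid.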

human TYK2 = target: T3, human TYK2 (Homo sapiens, UniProt P29597); test: TYK2 inhibition assay; type: biochemical; conditions: recombinant human TYK2 catalytic domain, polyGT substrate
T3 construct: catalytic domain (amino acids 871-1187; catalog number 08-147); purchased Carna Biosciences 08-147
T3 sequence (P29597 871-1187): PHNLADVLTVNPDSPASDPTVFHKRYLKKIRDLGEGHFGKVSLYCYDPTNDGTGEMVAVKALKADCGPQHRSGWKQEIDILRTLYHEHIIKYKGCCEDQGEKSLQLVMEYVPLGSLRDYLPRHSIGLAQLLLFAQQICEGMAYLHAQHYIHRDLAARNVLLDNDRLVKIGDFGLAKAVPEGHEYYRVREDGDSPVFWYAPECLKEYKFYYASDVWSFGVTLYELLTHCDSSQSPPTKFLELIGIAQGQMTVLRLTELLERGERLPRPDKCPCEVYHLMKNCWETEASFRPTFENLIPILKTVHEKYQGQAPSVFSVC
Method in brief: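 Radiometric kinase reaction run 90 min at 30 °C, stopped with phosphoric acid, washed and scintillation-counted.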

[1] = tested on: pSTAT1(2)-luciferase reporter in HeLa cells triggered with human OSM; test: JAK-STAT signalling assay; type: cell-based; conditions: read-out: JAK-STAT IC50
Method in brief: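 HeLa cells transiently co-transfected with pSTAT1(2)-luciferase and LacZ control reporter, preincubated with compound 60 min, then stimulated with human OSM (33 ng/mL final) overnight at 37 °C. Luciferase read by luminescence; percent inhibition from vehicle and no-trigger controls, EC50 from dose-response.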

[2] = Homo sapiens, HeLa, HeLa cells, pSTAT1(2)-luciferase reporter, human OSM 33 ng/mL
[3] = HeLa cells, pSTAT1(2)-luciferase reporter, human OSM 33 ng/mL

Row | Structure (SMILES) | IC50 (human JAK1) | IC50 (human JAK3) | IC50 (human TYK2) | IC50 [1, 2] | IC50 [1, 3] | IC50 ([1]; Homo sapiens, HeLa)
1 | CCc1cc(-c2cnn(Cc3ccc(Cl)cc3)c2)ccc1N(C)c1cc2c(cn1)ncn2C [Compound 239, N-(4-(1-(4-chlorobenzyl)-1H-pyrazol-4-yl)-2-ethylphenyl)-N,1-dimethyl-1H-imidazo[4,5-c]pyridin-6-amine] | 0.01 to 100 nM | 101 to 500 nM | 101 to 500 nM | 1 to 500 nM |  | 
2 | CCCn1cc(-c2ccc(N(C)c3cc4c(cn3)ncn4C)c(CC)c2)cn1 [Compound 240, N-(2-ethyl-4-(1-propyl-1H-pyrazol-4-yl)phenyl)-N,1-dimethyl-1H-imidazo[4,5-c]pyridin-6-amine] | 0.01 to 100 nM | 501 to 1000 nM | 0.01 to 100 nM | 501 to 1000 nM |  | 
3 | CCc1cc(-c2cnn(CC)c2)ccc1N(C)c1cc2c(cn1)ncn2C [Compound 241, N-(2-ethyl-4-(1-ethyl-1H-pyrazol-4-yl)phenyl)-N,1-dimethyl-1H-imidazo[4,5-c]pyridin-6-amine] | 0.01 to 100 nM | 101 to 500 nM | 101 to 500 nM | 1 to 500 nM |  | 
4 | CCc1cc(-c2cnn(CC3(C)COC3)c2)ccc1N(C)c1cc2c(cn1)ncn2C [Compound 242, N-(2-ethyl-4-(1-((3-methyloxetan-3-yl)methyl)-1H-pyrazol-4-yl)phenyl)-N,1-dimethyl-1H-imidazo[4,5-c]pyridin-6-amine] | 0.01 to 100 nM | 501 to 1000 nM | 101 to 500 nM |  | > 1000 nM | 
5 | CCc1cc(C2=CCN(S(=O)(=O)C(C)C)CC2)ccc1N(C)c1cc2c(cn1)ncn2C [Compound 246, N-(2-ethyl-4-(1-(isopropylsulfonyl)-1,2,3,6-tetrahydropyridin-4-yl)phenyl)-N,1-dimethyl-1H-imidazo[4,5-c]pyridin-6-amine] | 0.01 to 100 nM | 0.01 to 100 nM | 0.01 to 100 nM | 1 to 500 nM |  | 
6 | CCc1cc(C2=CCN(S(=O)(=O)CC#N)CC2)ccc1N(C)c1cc2c(cn1)ncn2C [Compound 247, 2-(4-(3-ethyl-4-(methyl(1-methyl-1H-imidazo[4,5-c]pyridin-6-yl)amino)phenyl)-5,6-dihydropyridin-1(2H)-ylsulfonyl)acetonitrile] | 0.01 to 100 nM | 0.01 to 100 nM | 0.01 to 100 nM | 1 to 500 nM |  | 
7 | CCc1cc(C2=CCN(C(=O)C(C)NC(=O)OC(C)(C)C)CC2)ccc1N(C)c1cc2c(cn1)ncn2C (stereo not shown) [Compound 249, tert-butyl 1-(4-(3-ethyl-4-(methyl(1-methyl-1H-imidazo[4,5-c]pyridin-6-yl)amino)phenyl)-5,6-dihydropyridin-1(2H)-yl)-1-oxopropan-2-ylcarbamate] | 0.01 to 100 nM | 0.01 to 100 nM | 0.01 to 100 nM | 1 to 500 nM |  | 
8 | CCc1cc(C2=CCN(C(=O)C(C)OC)CC2)ccc1N(C)c1cc2c(cn1)ncn2C (stereo not shown) [Compound 250, 1-(4-(3-ethyl-4-(methyl(1-methyl-1H-imidazo[4,5-c]pyridin-6-yl)amino)phenyl)-5,6-dihydropyridin-1(2H)-yl)-2-methoxypropan-1-one] | 0.01 to 100 nM | 501 to 1000 nM | 0.01 to 100 nM | 1 to 500 nM |  | 
9 | CCc1cc(C2=CCN(C(=O)[C@H](C)O)CC2)ccc1N(C)c1cc2c(cn1)ncn2C [Compound 251, (S)-1-(4-(3-ethyl-4-(methyl(1-methyl-1H-imidazo[4,5-c]pyridin-6-yl)amino)phenyl)-5,6-dihydropyridin-1(2H)-yl)-2-hydroxypropan-1-one] | 0.01 to 100 nM | 101 to 500 nM | 0.01 to 100 nM | 1 to 500 nM |  | 
10 | CCc1cc(CNC(=O)CC#N)ccc1N(C)c1cc2c(cn1)ncn2C [Compound 255, 2-cyano-N-(3-ethyl-4-(methyl(1-methyl-1H-imidazo[4,5-c]pyridin-6-yl)amino)benzyl)acetamide] | 0.01 to 100 nM | 101 to 500 nM | 101 to 500 nM | > 1000 nM |  | 
11 | CCc1cc(C2=CCN(C(=O)Nc3ncns3)CC2)ccc1N(C)c1cc2c(cn1)ncn2C [Compound 257, 4-(3-Ethyl-4-(methyl(1-methyl-1H-imidazo[4,5-c]pyridin-6-yl)amino)phenyl)-N-(1,2,4-thiadiazol-5-yl)-5,6-dihydropyridine-1(2H)-carboxamide] | 0.01 to 100 nM | 0.01 to 100 nM | 0.01 to 100 nM | 1 to 500 nM |  | 
12 | CCc1cc(CNC(=O)NC#N)ccc1N(C)c1cc2c(cn1)ncn2C [Compound 258, 1-{3-Ethyl-4-[methyl-(1-methyl-1H-imidazo[4,5-c]pyridin-6-yl)-amino]-benzyl}-3-cyano-urea] | 0.01 to 100 nM | 101 to 500 nM | 101 to 500 nM |  |  | > 1000 nM
13 | CCc1cc(O[C@@H]2CCN(S(C)(=O)=O)C2)ccc1N(C)c1cc2c(cn1)ncn2C [Compound 259, (R)-N-(2-ethyl-4-(1-(methylsulfonyl)pyrrolidin-3-yloxy)phenyl)-N,1-dimethyl-1H-imidazo[4,5-c]pyridin-6-amine] | 0.01 to 100 nM | 501 to 1000 nM | 101 to 500 nM | 501 to 1000 nM |  | 
14 | COc1cc(-c2cnn(C)c2)ncc1N(C)c1cc2c(cn1)ncn2C [Compound 263, N-(4-methoxy-6-(1-methyl-1H-pyrazol-4-yl)pyridin-3-yl)-N,1-dimethyl-1H-imidazo[4,5-c]pyridin-6-amine] | 501 to 1000 nM | > 1000 nM | > 1000 nM |  | > 1000 nM | 
15 | COc1cc(C2CCN(C(=O)CC#N)CC2)ncc1N(C)c1cc2c(cn1)ncn2C [Compound 265] | 501 to 1000 nM | > 1000 nM | > 1000 nM |  | > 1000 nM | 
16 | CCN(c1cc2c(cn1)ncn2C)c1ccc(C#N)cc1F [Compound 266, 4-(ethyl(1-methyl-1H-imidazo[4,5-c]pyridin-6-yl)amino)-3-fluorobenzonitrile] | > 1000 nM | > 1000 nM | > 1000 nM | > 1000 nM |  | 
17 | CN(c1cc2c(cn1)ncn2C)c1ccc(C#N)cc1F [Compound 267, 3-fluoro-4-(methyl(1-methyl-1H-imidazo[4,5-c]pyridin-6-yl)amino)benzonitrile] | 501 to 1000 nM | > 1000 nM | > 1000 nM | > 1000 nM |  | 
18 | CCc1cc(CNC(=O)NC)ccc1N(C)c1cc2c(cn1)ncn2C [Compound 270, 1-(3-ethyl-4-(methyl(1-methyl-1H-imidazo[4,5-c]pyridin-6-yl)amino)benzyl)-3-methylurea] | 101 to 500 nM | > 1000 nM | > 1000 nM | > 1000 nM |  | 
19 | CCc1cc(OC)ccc1N(C)c1cc2c(cn1)ncn2C [Compound 271, N-(2-ethyl-4-methoxyphenyl)-N,1-dimethyl-1H-imidazo[4,5-c]pyridin-6-amine] | 0.01 to 100 nM | 501 to 1000 nM | 0.01 to 100 nM | 1 to 500 nM |  | 
20 | CCOc1ccc(N(C)c2cc3c(cn2)ncn3C)c(CC)c1 [Compound 272, N-(4-ethoxy-2-ethylphenyl)-N,1-dimethyl-1H-imidazo[4,5-c]pyridin-6-amine] | 0.01 to 100 nM | 501 to 1000 nM | 0.01 to 100 nM | 501 to 1000 nM |  | 
21 | COc1cc(C2CCN(S(C)(=O)=O)CC2)ncc1N(C)c1cc2c(cn1)ncn2C [Compound 276] | 0.01 to 100 nM | > 1000 nM | > 1000 nM |  | > 1000 nM | 
22 | CN(c1cc2c(cn1)ncn2C)c1ccc(C2CN(S(C)(=O)=O)C2)cc1F [Compound 277, [2-Fluoro-4-(1-methanesulfonyl-azetidin-3-yl)-phenyl]-methyl-(1-methyl-1H-imidazo[4,5-c]pyridin-6-yl)-amine] | 0.01 to 100 nM | 101 to 500 nM | 501 to 1000 nM |  | > 1000 nM | 
